In US7449560B2, “Phosophoinositoglycan binding proteins” (Sanofi-Aventis Deutschland GmbH, priority 2002, dated 2008):

Experiments:
[1] = system: PIG(-P) receptor at hcDIGs; assay: Competition of unlabeled PIG(-P) with radiolabeled YCN-PIG binding to hcDIGs; design: species or system rat; conditions: for Binding affinity: hcDIGs of rat adipocytes; for efficacy in the competition assay (displacement of radiolabeled YCN-PIG from hcDIGs): unlabeled competitor
Procedure: (§1) 10 μl, of radiolabeled YCN-PIG or IcGce1p (60,000-80,000 dpm/nmol, final conc. 5 μM) was added to 40 μl of suspended plasma membranes, microsomes or hc/IcDIGs (40-80 μg of protein) in binding buffer in the absence or presence of unlabeled competitor (as indicated in the figure legends) in a total volume of 100 μl and incubated (30 min, 4° C.). For separation of membranes from the incubation medium, 45 μl aliquots were carefully layered over 200 μl, oil layers consisting of dibutyl phthalate and dioctyl phthalate (1/1 by vol., final density 1.012) in case of plasma membranes/microsomes or dibutyl phthalate and dinonyl phthalate (1/9 by vol., final density […]) in case of hc/IcDIGs in 0.4 ml precooled (4° C.) centrifugation tubes (microtubes no. 72.700, Sarstedt, Germany). […] After rigorous shaking (16 h, 25° C.), the radioactivity was counted in 9 ml of ACSII scintillation cocktail (Beckman). Under these conditions, sticking to the tube walls and partitioning into the oil layer of both radiolabeled YCN-PIG and IcGce1p accounted for 50-120 dpm (i.e. less than 0.5% of total radioactivity used per incubation) and therefore was not considered for calculation of binding data. Typical recoveries of plasma membranes and microsomes were 78-85% and 65-80%, respectively, and of hcDIGs and IcDIGs 83-92% and 70-78%, respectively, according to protein determination.
Radiolabeled YCN−PIG (18,000-22,000 dpm) was incubated (1 h, 4° C.) with hcDIGs (6.5 μg protein) in the absence or presence of increasing amounts of unlabeled YCN-PIG, YCN+PIG37, YMN-PIG, PIG37 and YCN (Competition). The membrane fractions/DIGs were subjected to oil-layer-centrifugation, recovered with/from the pellet/top of the oil layer, solubilized and counted for radioactivity.

[2] = system: IcGce1p binding site at hcDIGs; assay: Competition of synthetic PIG(-P) with radiolabeled IcGce1p binding to hcDIGs; design: species or system rat
Procedure: (§2) 10 μl, of radiolabeled YCN-PIG or IcGce1p (60,000-80,000 dpm/nmol, final conc. 5 μM) was added to 40 μl of suspended plasma membranes, microsomes or hc/IcDIGs (40-80 μg of protein) in binding buffer in the absence or presence of unlabeled competitor (as indicated in the figure legends) in a total volume of 100 μl and incubated (30 min, 4° C.). […] After rigorous shaking (16 h, 25° C.), the radioactivity was counted in 9 ml of ACSII scintillation cocktail (Beckman). Under these conditions, sticking to the tube walls and partitioning into the oil layer of both radiolabeled YCN-PIG and IcGce1p accounted for 50-120 dpm (i.e. less than 0.5% of total radioactivity used per incubation) and therefore was not considered for calculation of binding data. […]
Radiolabeled Gce1p prepared from S. cerevisiae and treated with PI-specific PLC (B. cereus) was incubated (1 h, 4° C.) with hcDIGs (6.5 μg protein) isolated from untreated rat adipocytes in the absence or presence of unlabeled PIG-P. hcDIGs were subjected to oil-layer-centrifugation, solubilized and counted for radioactivity. […]

[3] = system: IcDIGs; assay: Binding of radiolabeled YCN-PIG to IcDIGs; design: species or system rat; conditions: control adipocytes (no m-βCD)
Procedure: as §2
Radiolabeled YCN-PIG (12,000-18,000 dpm) was incubated (1 h, 4° C.) with the (proportional) amounts of hcDIGs and IcDIGs prepared from isolated rat adipocytes which had been pretreated (50 min, 30° C.) with increasing concentrations of m-βCD or left untreated. DIGs were subjected to oil-layer-centrifugation, recovered from top of the oil layer, solubilized and counted for radioactivity measured in the absence and presence of 10 μM unlabeled YCN-PIG. […]

[4] = system: PIG(-P) receptor at hcDIGs; assay: Binding of radiolabeled YCN-PIG to hcDIGs (oil-layer centrifugation, Scatchard plot); design: species or system rat
Procedure: as §1, with “determination. […]” for “determination.”
Increasing amounts of radiolabeled YCN−PIG isolated from S. cerevisiae were incubated (1 h, 4° C.) with hcDIGs (6.5 μg protein), IcDIGs (6.5 μg), plasma membranes (47.5 μg) and microsomes (68 μg) from isolated rat adipocytes. The membrane fractions/DIGs were subjected to oil-layer-centrifugation, recovered with/from the pellet/top of the oil layer, solubilized and counted for radioactivity. Specific binding was calculated as the difference between radioactivity measured in the absence and presence of 10 μM unlabeled YCN−PIG. […]

[5] = system: CIR (115 kDa polypeptide); assay: [14C]NEM-labeling and trypsin/NaCl release of CIR from rat adipocytes; type: cell-based; conditions: adipocytes treated before labeling
Procedure: For trypsin/NaCl-treatment, 2 ml of adipocyte suspension (3.5×10^6 cells/ml) in KRH containing 5 mM glucose was incubated (20 min, 30° C.) in the presence of 100 μg/ml trypsin. Soy bean trypsin inhibitor (final conc. 100 μg/ml) and 2 ml of KRH containing 1 M NaCl and 0.5% BSA were added and the incubation (10 min, 22° C.) continued. For NEM-treatment, 1 ml of adipocyte suspension (3.5×10^6 cells/ml) in KRH containing 5 mM glucose was incubated (30 min, 25° C.) with NEM (1.5 mM final conc.) and then with DTT (15 mM final conc., 5 min). After the treatments, the cells were centrifuged (1500×g, 5 min, swing-out rotor) and the infranatant removed by suction. The cell suspension left (about 0.5 ml) was supplemented with 10 ml of KRH containing 0.5% BSA and then centrifuged again (500×g, 1 min, swing-out rotor). […] Proteins of the medium contained in the lower part of the tubes were precipitated (10% TCA, two acetone washes), suspended in Laemmli sample buffer and analyzed by SDS-PAGE. […]
Phosphorimages are shown from a typical experiment repeated three times with similar results. Quantitative evaluation of four different adipocyte incubations with triplicate measurements given as arbitrary units (mean±SD) with the amount of CIR released from trypsin/NaCl-treated control cells set at 100.

Substance | Binding affinity [1] | efficacy in the competition assay (displacement of radiolabeled YCN-PIG from hcDIGs) [1] | Competition of IcGce1p binding [2] | YCN-PIG left associated with IcDIGs [3] [%] | Bmax ([4]; Scatchard plot analysis, radiolabeled YCN-PIG) | Bmax higher vs untreated ([4]; hcDIGs from PI-specific PLC-pretreated adipocytes, Scatchard) [fold] | increase in binding of YCN-PIG to hcDIGs ([4]; hcDIGs from adipocytes pretreated with GPI-specific PL (PI-specific PLC / GPI-specific PLD)) [%] | stimulation of trypsin/NaCl-dependent release of [14C]NEM-labeled CIR [5] [%]
HO—PO(H)O-6Manα1 (Manα1-2)-2-Manα1-6Manα1-4GluN1-6Ino-1,2-(cyclic)-phosphate [PIG37] | intermediate | significantly reduced efficacy | considerably less efficient | – | – | – | – | –
Tyr-Cys-Asn-NH—(CH2)2—OH [YCN] | low | very low activity | considerably less efficient | – | – | – | – | –
Tyr-Cys-Asn-NH—(CH2)2—O—PO(OH)O-6Manα1-2)2Manα1-6Manα1-4GluN1-6Ino-1,2-(cyclic)-phosphate [YCN-PIG, phosphoinositolglycan-peptide derived from yeast Gce1p GPI anchor; also chemically synthesized] | highest | – | – | 20 | 50-200 pmol per mg protein of hcDIGs | 2 to 3 | 200 | –
insulin: human insulin | – | – | – | – | – | – | – | 20
